Source: patent publication US20100267561A1, “HERBICIDAL PYRIDAZINONE DERIVATIVES” (priority 2007, published 2010)
Like-named read-outs stand apart in the source and are kept apart here.

Tests used:
Type in all cases: in vivo
[1] = test system: wheat (Triticum aestivum); test: Test A pre-/postemergence plant response; conditions: for plant injury at 125 g/ha / plant injury at 500 g/ha / plant injury at 31 g/ha: Triticum aestivum, 240 h, read-out: Plant response rating, Wheat
Method in brief: (§1)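 Both pre- and postemergence treatment given concurrently; postemergence seedlings measured 2–10 cm at the one- to two-leaf stage. Visual injury, 0–100 scale versus untreated, at ~10 days.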

[2] = test system: barnyardgrass (Echinochloa crus-galli); test: Test A pre-/postemergence plant response; conditions: for pest or weed control at 125 g/ha / pest or weed control at 500 g/ha / pest or weed control at 31 g/ha: Echinochloa crus-galli, 240 h, read-out: Plant response rating, Barnyardgrass
Method in brief: as §1

corn (Zea mays) = test: Test A pre-/postemergence plant response; conditions: for Corn plant response rating (crop injury, 0 = no effect, 100 = complete kill) at 125 g/ha / Corn plant response rating (crop injury, 0 = no effect, 100 = complete kill) at 500 g/ha / Corn plant response rating (crop injury, 0 = no effect, 100 = complete kill) at 31 g/ha: Zea mays, 240 h
Method in brief: as §1

[3] = test system: pigweed (Amaranthus retroflexus); test: Test A pre-/postemergence plant response; conditions: for pest or weed control at 125 g/ha / pest or weed control at 500 g/ha / pest or weed control at 31 g/ha: Amaranthus retroflexus, 240 h, read-out: Plant response rating, Pigweed
Method in brief: as §1

[4] = test system: morningglory (Ipomoea coccinea); test: Test A pre-/postemergence plant response
Method in brief: as §1

[5] = test system: pigweed (Amaranthus retroflexus); test: Test B pre-/postemergence plant response; conditions: Preemergence; for Pigweed plant response rating: 8 g ai/ha
Method in brief: (§2)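 Preemergence and postemergence (plants 2-18 cm, 1- to 4-leaf stage) applications used test chemicals in a non-phytotoxic solvent with surfactant. Plants were held in a greenhouse 13 to 15 days, then rated visually against controls on a 0-100 scale (0 no effect, 100 complete control).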

[6] = test system: johnsongrass (Sorghum halepense); test: Test B pre-/postemergence plant response; conditions: Preemergence
Method in brief: as §2

[7] = test system: catchweed bedstraw (Galium aparine); test: Test B pre-/postemergence plant response; conditions: Preemergence
Method in brief: as §2

[8] = Postemergence, 125 g ai/ha, 0 to 100 scale, 0 no effect, 100 complete control
[9] = Postemergence, 500 g ai/ha, 0 to 100 scale, 0 no effect, 100 complete control
[10] = Preemergence, 125 g ai/ha, 0 to 100 scale (0 no effect, 100 complete control)
[11] = Preemergence, 500 g ai/ha, 0 to 100 scale (0 no effect, 100 complete control)
[12] = 16 g ai/ha, scale 0 to 100 (0 no effect, 100 complete control)
[13] = 31 g ai/ha, 0 to 100 scale, 0 no effect, 100 complete control
[14] = Postemergence, 31 g ai/ha, 0 to 100 scale, 0 no effect, 100 complete control
[15] = Preemergence, 31 g ai/ha, 0 to 100 scale, 0 is no effect, 100 is complete control
[16] = post-emergence, Postemergence, 125 g ai/ha, 0 to 100 scale, 0 no effect, 100 complete control
[17] = post-emergence, Postemergence, 500 g ai/ha, 0 to 100 scale, 0 no effect, 100 complete control
[18] = pre-emergence, Preemergence, 125 g ai/ha, 0 to 100 scale (0 no effect, 100 complete control)
[19] = pre-emergence, Preemergence, 500 g ai/ha, 0 to 100 scale (0 no effect, 100 complete control)
[20] = post-emergence, Postemergence, 31 g ai/ha, 0 to 100 scale (0 no effect, 100 complete control)
[21] = pre-emergence, Preemergence, 31 g ai/ha, 0 to 100 scale, 0 is no effect, 100 is complete control

Cc1cc(-c2ccc(C(F)(F)F)cc2)nn1-c1c(O)c(C(C)C)nn(C)c1=O [Compound 27]
50: Plant response rating, Wheat [1, 8] | Plant response rating, Corn (corn (Zea mays); [8])
80: Plant response rating, Barnyardgrass [2, 10] | Plant response rating, Corn (corn (Zea mays); [9]) | Plant response rating, Corn (corn (Zea mays); [11])
90: Plant response rating, Wheat [1, 9] | Plant response rating, Barnyardgrass [2, 9]
40: Plant response rating, Wheat [1, 10] | Plant response rating, Johnsongrass [6, 12]
20: Plant response rating, Barnyardgrass [2, 8] | Plant response rating, Corn (corn (Zea mays); [10])
75: Plant response rating, Johnsongrass [6, 13]
100: Plant response rating, Wheat [1, 11] | Plant response rating, Barnyardgrass [2, 11]
85: Plant response rating, Johnsongrass ([6]; 62 g ai/ha, scale 0 to 100)
0: Plant response rating, Pigweed [3, 8] | Plant response rating, Pigweed [3, 9] | Plant response rating, Pigweed [3, 10] | Plant response rating, Pigweed [3, 11] | Plant response rating, Morningglory [4, 8] | Plant response rating, Morningglory [4, 9] | Plant response rating, Morningglory [4, 10] | Plant response rating, Morningglory [4, 11] | Plant response rating, Pigweed [5, 12] | Plant response rating, Pigweed [5, 13] | Plant response rating, Pigweed ([5]; 62 g ai/ha, scale 0 to 100) | Pigweed plant response rating ([5]; scale 0 to 100) | Johnsongrass plant response rating ([6]; 8 g ai/ha, scale 0 to 100)

Cc1ccc(-c2ccc(Cl)cc2)cc1-c1c(O)cnn(C)c1=O [Compound 46]
85: Plant response rating, Johnsongrass [6, 13]
100: Plant response rating, Barnyardgrass [2, 10] | Plant response rating, Pigweed ([5]; 62 g ai/ha, scale 0 to 100)
90: Plant response rating, Johnsongrass ([6]; 62 g ai/ha, scale 0 to 100)
30: Plant response rating, Wheat [1, 8]
60: Plant response rating, Pigweed ([5]; 31 g ai/ha, scale 0 to 100 (0 no effect, 100 complete control))
40: Plant response rating, Barnyardgrass [2, 15]
50: Plant response rating, Wheat [1, 10] | Plant response rating, Barnyardgrass [2, 8] | Plant response rating, Corn (corn (Zea mays); [8])
55: Plant response rating, Johnsongrass [6, 12]
20: Plant response rating, Corn (corn (Zea mays); [14])
0: Plant response rating, Wheat [1, 14] | Plant response rating, Wheat [1, 15] | Plant response rating, Barnyardgrass [2, 14] | Plant response rating, Corn (corn (Zea mays); [15]) | Plant response rating, Corn (corn (Zea mays); [10]) | Plant response rating, Pigweed [3, 14] | Plant response rating, Pigweed [3, 8] | Plant response rating, Pigweed [3, 15] | Plant response rating, Pigweed [3, 10] | Plant response rating, Morningglory [4, 14] | Plant response rating, Morningglory [4, 8] | Plant response rating, Morningglory [4, 15] | Plant response rating, Morningglory [4, 10] | Plant response rating, Galium [7, 12] | Plant response rating, Galium [7, 13] | Plant response rating, Galium ([7]; 62 g ai/ha, scale 0 to 100) | Galium plant response rating ([7]; 8 g ai/ha, scale 0 to 100) | Plant response rating, Pigweed [5, 12] | Pigweed plant response rating ([5]; scale 0 to 100)

Cc1cc(-c2ccc(Br)cc2)nn1-c1c(O)cnn(C2CCCCO2)c1=O (centres unmarked) [Compound 77, 4-[3-(4-bromophenyl)-5-methyl-1H-pyrazol-1-yl]-5-hydroxy-2-(tetrahydro-2H-pyran-2-yl)-3(2H)-pyridazinone]
0%: plant injury at 125 g/ha [1, 18] | pest or weed control at 125 g/ha [2, 18] | pest or weed control at 125 g/ha [3, 16] | pest or weed control at 500 g/ha [3, 17] | pest or weed control at 125 g/ha [3, 18] | pest or weed control at 500 g/ha [3, 19]
50%: pest or weed control at 125 g/ha [2, 16]
80%: plant injury at 500 g/ha [1, 19] | Corn plant response rating (crop injury, 0 = no effect, 100 = complete kill) at 125 g/ha (corn (Zea mays); [16]) | Corn plant response rating (crop injury, 0 = no effect, 100 = complete kill) at 500 g/ha (corn (Zea mays); [19])
30%: Corn plant response rating (crop injury, 0 = no effect, 100 = complete kill) at 125 g/ha (corn (Zea mays); [18])
100%: pest or weed control at 500 g/ha [2, 17] | pest or weed control at 500 g/ha [2, 19] | Corn plant response rating (crop injury, 0 = no effect, 100 = complete kill) at 500 g/ha (corn (Zea mays); [17])
90%: plant injury at 500 g/ha [1, 17]
70%: plant injury at 125 g/ha [1, 16]

Cc1cn(-c2ccc(C(F)(F)F)cc2)nc1-c1c(O)cnn(C)c1=O [Compound 85, 5-hydroxy-2-methyl-4-[4-methyl-1-[4-(trifluoromethyl)phenyl]-1H-pyrazol-3-yl]-3(2H)-pyridazinone]
40%: pest or weed control at 125 g/ha [2, 18]
20%: plant injury at 125 g/ha [1, 16] | plant injury at 125 g/ha [1, 18]
0%: plant injury at 31 g/ha [1, 20] | plant injury at 31 g/ha [1, 21] | pest or weed control at 31 g/ha [2, 20] | pest or weed control at 31 g/ha [2, 21] | Corn plant response rating (crop injury, 0 = no effect, 100 = complete kill) at 31 g/ha (corn (Zea mays); [20]) | Corn plant response rating (crop injury, 0 = no effect, 100 = complete kill) at 125 g/ha (corn (Zea mays); [16]) | Corn plant response rating (crop injury, 0 = no effect, 100 = complete kill) at 31 g/ha (corn (Zea mays); [21]) | Corn plant response rating (crop injury, 0 = no effect, 100 = complete kill) at 125 g/ha (corn (Zea mays); [18]) | pest or weed control at 31 g/ha [3, 20] | pest or weed control at 125 g/ha [3, 16] | pest or weed control at 31 g/ha [3, 21] | pest or weed control at 125 g/ha [3, 18]
30%: pest or weed control at 125 g/ha [2, 16]

Cn1ncc(O)c(-c2nn(-c3ccc(C(F)(F)F)cc3)cc2Br)c1=O [Compound 87, 4-[4-bromo-1-[4-(trifluoromethyl)phenyl]-1H-pyrazol-3-yl]-5-hydroxy-2-methyl-3(2H)-pyridazinone]
90%: pest or weed control at 125 g/ha [2, 16]
40%: Corn plant response rating (crop injury, 0 = no effect, 100 = complete kill) at 125 g/ha (corn (Zea mays); [16])
0%: plant injury at 31 g/ha [1, 21] | pest or weed control at 31 g/ha [2, 20] | pest or weed control at 31 g/ha [2, 21] | Corn plant response rating (crop injury, 0 = no effect, 100 = complete kill) at 31 g/ha (corn (Zea mays); [20]) | Corn plant response rating (crop injury, 0 = no effect, 100 = complete kill) at 31 g/ha (corn (Zea mays); [21]) | pest or weed control at 31 g/ha [3, 20] | pest or weed control at 125 g/ha [3, 16] | pest or weed control at 31 g/ha [3, 21] | pest or weed control at 125 g/ha [3, 18]
50%: plant injury at 125 g/ha [1, 16] | pest or weed control at 125 g/ha [2, 18]
20%: plant injury at 31 g/ha [1, 20] | plant injury at 125 g/ha [1, 18] | Corn plant response rating (crop injury, 0 = no effect, 100 = complete kill) at 125 g/ha (corn (Zea mays); [18])
